# Reference: BindingDB's records for PubMed 1320692 (Ciba-Geigy, 1992)
# Several values for one entry are separate records, joined by “and”; a condition that tells them apart may be missing. Equal entries are not always repeated.
# Biological target: T1, Leukotriene B4 receptor 2 (Homo sapiens, UniProt Q9NPC1)
# T1 sequence (Q9NPC1 whole entry): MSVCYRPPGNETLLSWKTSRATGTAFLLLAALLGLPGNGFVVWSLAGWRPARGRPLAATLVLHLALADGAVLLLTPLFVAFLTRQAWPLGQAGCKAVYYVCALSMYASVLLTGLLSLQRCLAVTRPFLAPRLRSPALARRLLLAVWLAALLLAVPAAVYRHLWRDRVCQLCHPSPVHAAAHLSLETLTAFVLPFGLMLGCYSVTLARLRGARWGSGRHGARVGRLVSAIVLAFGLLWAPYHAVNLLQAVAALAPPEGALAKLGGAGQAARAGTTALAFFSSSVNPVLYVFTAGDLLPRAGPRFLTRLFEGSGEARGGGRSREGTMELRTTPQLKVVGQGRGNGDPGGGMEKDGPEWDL
row,Compound,Ki
1,CCc1cc(C(C)=O)c(O)cc1OCCCCC(C)(C)c1nnn[nH]1 [CGS 23167],293 nM and 364 nM
2,COc1ccc(/C=C/CCCCOc2ccc(Oc3cccc(C(=O)O)c3)cc2CCC(=O)O)cc1 [CGS 23130],24 nM and 8 nM
3,CCCCCCCCC(O)/C=C/c1cccc(C)n1 (centres undefined) [CGS 23114],885 nM
4,COc1ccc(/C=C/CCCCOc2ccc(C(=O)c3cccc(C(=O)O)c3)cc2CCC(=O)O)cc1 [(Z)-3-{3-(2-Carboxy-ethyl)-4-[6-(4-methoxy-phenyl)-hex-5-enyloxy]-benzoyl}-benzoic acid],35 nM and 15 nM
